What was measured:
Assay in all cases: relative viability (nuclei count vs DMSO), 5 days (fraction); higher = more cells survive
EPLC-272H = tested on: EPLC-272H
In short: (§1)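 Relative viability equals treated-well nuclei counts divided by vehicle-well nuclei counts. Counts came from 4× images of lung cancer cell lines grown in 1536-well plates for 5 days after pin-tool dosing on the day after seeding. Dosing used one drug alone or a fixed anchor-drug dose plus five library-drug doses (not always all listed) in √10 steps, and values are medians of duplicate plates.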

NCI-H2085 = tested on: NCI-H2085
In short: as §1

NCI-H1975 = tested on: NCI-H1975
In short: as §1

LXF-289 = tested on: LXF-289
In short: as §1

SW 900 = tested on: SW 900
In short: as §1

HCC-827 = tested on: HCC-827
In short: as §1

LK-2 = tested on: LK-2
In short: as §1

HCC-78 = tested on: HCC-78
In short: as §1

SK-LU-1 = tested on: SK-LU-1
In short: as §1

NCI-H23 = tested on: NCI-H23
In short: as §1

NCI-H2405 = tested on: NCI-H2405
In short: as §1

NC(=O)Nc1cc(-c2cccc(F)c2)sc1C(=O)N[C@H]1CCCNC1 [AZD7762] + O=C(CCCCCCC(=O)Nc1ccccc1)NO [Vorinostat] (partner 1 µM)
relative viability (EPLC-272H; first compound 0.01 µM): 0.705
relative viability (EPLC-272H; first compound 0.03162 µM): 0.543
relative viability (EPLC-272H; first compound 0.1 µM): 0.383
relative viability (EPLC-272H; first compound 0.3162 µM): 0.107
relative viability (EPLC-272H; first compound 1 µM): 0.0642
relative viability (NCI-H2085; first compound 0.01 µM): 0.788
relative viability (NCI-H2085; first compound 0.03162 µM): 0.784
relative viability (NCI-H2085; first compound 0.1 µM): 0.862
relative viability (NCI-H2085; first compound 0.3162 µM): 0.803
relative viability (NCI-H2085; first compound 1 µM): 0.628
relative viability (NCI-H1975; first compound 0.01 µM): 0.725
relative viability (NCI-H1975; first compound 0.03162 µM): 0.641
relative viability (NCI-H1975; first compound 0.1 µM): 0.655
relative viability (NCI-H1975; first compound 0.3162 µM): 0.626
relative viability (NCI-H1975; first compound 1 µM): 0.401
relative viability (LXF-289; first compound 0.01 µM): 0.67
relative viability (LXF-289; first compound 0.03162 µM): 0.802
relative viability (LXF-289; first compound 0.1 µM): 0.77
relative viability (LXF-289; first compound 0.3162 µM): 0.78
relative viability (LXF-289; first compound 1 µM): 0.83
relative viability (SW 900; first compound 0.01 µM): 0.643
relative viability (SW 900; first compound 0.03162 µM): 0.445
relative viability (SW 900; first compound 0.1 µM): 0.545
relative viability (SW 900; first compound 0.3162 µM): 0.262
relative viability (SW 900; first compound 1 µM): 0.275
relative viability (HCC-827; first compound 0.01 µM): 0.984
relative viability (HCC-827; first compound 0.03162 µM): 0.947
relative viability (HCC-827; first compound 0.1 µM): 0.846
relative viability (HCC-827; first compound 0.3162 µM): 0.753
relative viability (HCC-827; first compound 1 µM): 0.618
relative viability (LK-2; first compound 0.01 µM): 0.307
relative viability (LK-2; first compound 0.03162 µM): 0.316
relative viability (LK-2; first compound 0.1 µM): 0.272
relative viability (LK-2; first compound 0.3162 µM): 0.468
relative viability (LK-2; first compound 1 µM): 0.283
relative viability (HCC-78; first compound 0.01 µM): 0.496
relative viability (HCC-78; first compound 0.03162 µM): 0.469
relative viability (HCC-78; first compound 0.1 µM): 0.498
relative viability (HCC-78; first compound 0.3162 µM): 0.425
relative viability (HCC-78; first compound 1 µM): 0.349
relative viability (SK-LU-1; first compound 0.01 µM): 0.909
relative viability (SK-LU-1; first compound 0.03162 µM): 0.663
relative viability (SK-LU-1; first compound 0.1 µM): 0.563
relative viability (SK-LU-1; first compound 0.3162 µM): 0.273
relative viability (SK-LU-1; first compound 1 µM): 0.276
relative viability (NCI-H23; first compound 0.01 µM): 0.634
relative viability (NCI-H23; first compound 0.03162 µM): 0.503
relative viability (NCI-H23; first compound 0.1 µM): 0.582
relative viability (NCI-H23; first compound 0.3162 µM): 0.248
relative viability (NCI-H23; first compound 1 µM): 0.149
relative viability (NCI-H2405; first compound 0.01 µM): 1.08
relative viability (NCI-H2405; first compound 0.03162 µM): 1.08
relative viability (NCI-H2405; first compound 0.1 µM): 0.976
relative viability (NCI-H2405; first compound 0.3162 µM): 0.756
relative viability (NCI-H2405; first compound 1 µM): 0.521
